Experiments:
[1] = system: EGFR-specific CAR; assay: CAR expression by flow cytometry after editing (anti-idiotype antibody staining); format: cell-based, human
From the text: FIGS. 4A-4C provide flow cytometry graphs and bar graphs. FIGS. 4A and 4B depict CAR expression after editing A2A, HIF1α, and A2B target sites in CAR-T cells using guides. FIG. 4A provides flow cytometry graphs depicting CAR expression controls for electroporation (EP) only and untransduced (UTD) CAR-T cells. FIG. 4B are flow cytometry graphs depicting CAR expression of edited A2AR target sites using guides g145, g155, and Cas9 (top), edited HIF1α target sites using guides g168, g170, and g173 (middle), and edited A2B target sites using guides g221, g222, and Cas9 (bottom). FIG. 4C is a bar graph quantifying the CAR expression observed in the flow cytometry graphs of FIG. 4B. Consistent 60% CAR expression was seen across all guides and editing targets. There was no observed impact of editing on CAR expression.
FIG. 19A provides a bar graph showing base editing of the ADORA2A gene quantified via next generation sequencing (NGS). […] FIG. 19D provides a schematic providing an overview of a process for generating multiplex base edited EGFR-targeting ARC T cells. In FIG. 19B, each set of three bars correspond to, from left-to-right, TCR, HLA Class I, and HLA Class II. In FIGS. 19A-19D, “Base Editing Guide 1” […] indicates cells edited using the base editor ABE8.20 in combination with the guide sgRNA145 (see Table 1A), “Base Editing Guide 2” (BE2) indicates cells edited using the base editor ABE8.20 in combination with the guide sgRNA155, and “CRISPR Guide” indicates cells edited using a CRISPR guide and editor known to be effective in knocking out expression of A2AR.
FIG. 25 provides a set of flow cytometry scatter plots showing chimeric antigen receptor expression in EGFR-targeting CAR-T cells edited to knock out expression of the indicated polypeptides (i.e., A2AR, PD1, TGFbRII, or combinations thereof). At the end of culturing, T cells were stained with an anti-idiotype antibody. […] was knocked out using the guide TSBTx2043, PD1 expression was knocked out using the guide TSBTx025, TGFbR expression was knocked out using the guide TSBTx5277, and “Triple KO” cells were editing using all three guides (see Table 1B).

[2] = system: SKOV3 or H226 cells; assay: IFNγ production of EGFR CAR-Ts with HIF1α edits co-cultured with tumor cells in 1% O2; format: cell-based; settings: 1 to 1 E:T ratio, 1% O2, 48 hours, vs unedited EGFR CAR-T cells, FIG. 10
Experimental: FIG. 10 provides bar graphs depicting IFNγ production (pg/mL) after EGFR CAR-Ts with HIF1α edits were co-cultured at 1 to 1 E:T ratio with either SKOV3 or H226 cells in 1% O2 for 48 hours. HIF1α was edited using guides g170 and g173. Electroporation (EP) only was used as a control. EGFR CAR-T cells with HIF1α knockout edits produced more cytokine under hypoxic stress than unedited EGFR CAR-T cells.

[3] = system: pCREB; assay: pCREB expression (flow cytometry) in A2AR knockout T cells treated with CADO; format: cell-based; settings: 30 μM CADO vs DMSO, FIG. 14
Experimental: FIG. 14 provides histograms depicting expression of pCREB in A2AR knockout T cells using guides g145 and g155. Cas9 and Electroporation (EP) only were used as controls. In the plots, the darker-grey histogram corresponds to DMSO and the lighter-grey histogram corresponds to 30 μM CADO. […] Throughout the figures, the term “CADO” represents 2-chloroadenosine.
FIGS. 20A-20E provide flow cytometry histograms, bar graphs, a plot, and images showing adenosine-resistant CAR-T cells (CAR-T cells) were protected from adenosine-mediated suppression in vitro. […] H266 cells expressing GFP were plated in ultra-low adherent 96-well plates and incubated at 36° C. for 3 days to allow for spheroid formation. Then, untransduced cells (UTD), ARC T cells, or CAR T cells expressing TCR, HLA Class I, HLA Class II, and ADAR were added to the wells at a 1:2 effector to target ratio (E:T) with 0 μM adenosine. Plates were then placed in an Incucyte live imaging analysis instrument and cytotoxicity was measured via reduction in GFP+ spheroid volume over time. […]

[4] = system: IFNγ production; assay: IFNγ production of A2AR knockout T cells in the presence of CADO / extracellular adenosine; format: cell-based; settings: normalized to 0 μM CADO (DMSO only), FIG. 15
Experimental: FIG. 15 presents bar graphs depicting IFNγ production after 48 hours in A2AR knockout T cells using guides g145 and g155. The data shown in FIG. 15 is normalized to IFNγ production in 0 μM CADO (DMSO only treatment). A2A knockout protected CAR-T cells from adenosine-mediated cytokine suppression.
FIGS. 20A-20E provide flow cytometry histograms, bar graphs, a plot, and images showing adenosine-resistant CAR-T cells (CAR-T cells) were protected from adenosine-mediated suppression in vitro. […] H266 cells expressing GFP were plated in ultra-low adherent 96-well plates and incubated at 36° C. for 3 days to allow for spheroid formation. Then, untransduced cells (UTD), ARC T cells, or CAR T cells expressing TCR, HLA Class I, HLA Class II, and ADAR were added to the wells at a 1:2 effector to target ratio (E:T) with 0 μM adenosine. Plates were then placed in an Incucyte live imaging analysis instrument and cytotoxicity was measured via reduction in GFP+ spheroid volume over time. In FIGS. 19A-19D, “BE KO1” indicates cells edited using the base editor ABE8.20 in combination with the guide sgRNA145 (see Table 1A), “BE KO2” indicates cells edited using the base editor ABE8.20 in combination with the guide sgRNA155, and “CRISPR KO” indicates cells edited using a CRISPR guide and editor known to be effective in knocking out expression of A2AR.

[5] = after editing A2A, HIF1α, and A2B target sites in CAR-T cells, FIG. 4C

Substance	CAR expression [1, 5]	IFNγ production [2]	upregulation of downstream pCREB [3]	IFNγ production after 48 hours (adenosine-mediated cytokine suppression) [4]	CAR expression ([1]; EGFR-targeting CAR-T cells with A2AR, PD1, TGFbRII knock-out or combinations, anti-idiotype antibody, FIG. 25)
ACACAGGUAUUGCACUGCAC (chemistry not given here) [sgRNA170, guide RNA spacer; HIF1α; ABE; Ex6 SA (Pos 5)]	60%	more cytokine			
CUGCUCACCGGAGCGGGAUG (chemistry not given here) [sgRNA145, guide RNA spacer; A2AR; CBE; Ex1 SD (Pos 8)]	60%		no upregulation	protected	
GGCCAUGCUGCUGGAGACAC (chemistry not given here) [sgRNA221, guide RNA spacer; A2BR; ABE; Ex1 START (Pos 5)]	60%				
TSBTx5277: guide used with Cas12b to knock out TGFbR2 (guide CCCAGAGCACCAGAGCCAUGGA; listed as RNA, chemistry not given here)					No differences
UCACCUGAGCGGGACACAGA (chemistry not given here) [sgRNA222, guide RNA spacer; A2BR; Ex1 SD (Pos 4); used with CBE]	60%				
UCUCCCCAGGUACAAUGGCU (chemistry not given here) [sgRNA155, guide RNA spacer; A2AR; ABE (ABE8.20); Ex2 SA (Pos 8)]	60%		no upregulation	protected	
UGUUUACAGUUUGAACUAAC (chemistry not given here) [sgRNA168, guide RNA spacer; HIF1α; ABE; Ex4 SA (Pos 8)]	60%				
UUUCAGAACUACAGUUCCUG (chemistry not given here) [sgRNA173, guide RNA spacer; HIF1α; ABE (ABE8.20); Ex13 SA (Pos 5)]	60%	more cytokine			
